Publication PMC6270258, “Diosgenone Synthesis, Anti-Malarial Activity and QSAR of Analogues of This Natural Product” (Molecules, 2013)
Where two headings read alike, the source gives them in different places.

Columns and labels:
[1] = Cytotoxicity, MTT colorimetric test; assay type: cell-based, human; conditions: human
Description: (§1) Steroidal derivatives’ cytotoxicity regarding the HepG2-A16 cell line was evaluated by colorimetric test using 3-(4,5-dimethylthiazolyl-2)-2,5-diphenyltetrazolium bromide (MTT), as described by Mosmann [28]. […] An aliquot of each derivative dilution (100 μL, 1,000, 100, 10 and 1 μg/mL) was then added to the wells in triplicate. […] The DMSO diluent agent was evaluated in complete medium and negative controls (untreated cells) were included. Absorbance was measured at 550 nm and statistical Prism software version 5.0 (GraphPad Software Inc., La Jolla, CA, USA) was used for calculating toxic concentration (CC50). Amphotericin B was used as positive control in this assay.

[2] = tested on: Plasmodium falciparum NF-54 strain; assay: In vitro antiplasmodial activity, [3H]hypoxanthine incorporation, NF-54 strain; assay type: cell-based; conditions: 48 h, read-out: IC50 μM ± SD NF-54
Description: (§2) A 10 mg/mL stock solution was prepared. […] A 50 μL sample was extracted from this solution and adjusted to 1,000 μL with RPMI-1640 without hypoxanthine until a final 500 μg/mL concentration was reached. The P. falciparum FcB-2 (Colombia) and NF54 (The Netherlands) strains were used for assessing anti-malarial activity.
(§3) Trager and Jensen’s method was used for culturing strains [24, 25]. The methods described by Desjardins et al. [26] were used for evaluating the structural analogs’ in vitro antiplasmodial activity, with some modifications. […] 1.0 µCi/mL of [3H] hypoxanthine (MP Biomedicals, Santa Ana, CA, USA) was added to each well and the plates were then incubated for 48 h at 37 °C in 5% CO2, 5% O2 in a balanced N2 atmosphere. Parasite DNA was harvested and radioactivity was determined by automatic TDCR liquid scintillation counter plate (Chameleon, Hidex Oy, Finland). Experiments were repeated twice with two or three replicates each. A nonlinear regression sigmoidal dose-response (variable slope) model was used to estimate concentration inhibiting 50% growth (IC50) values for each derivative.

[3] = tested on: Plasmodium falciparum FCB-2 (chloroquine-resistant) strain; assay: In vitro antiplasmodial activity, [3H]hypoxanthine incorporation, FCB-2 strain; assay type: cell-based; conditions: for antiplasmodial activity (in words): P. falciparum FCB-2 and NF-54 strains, compared to diosgenone or parent; for IC50: Plasmodium falciparum, 48 h; for RI (resistance index): IC50 FCB-2 (resistant strain)/IC50 NF-54 (sensitive strain)
Description: as §2, §3

[4] = tested on: HepG2-A16 human hepatoma cells; assay: Cytotoxicity, MTT colorimetric test; assay type: cell-based; conditions: for SI (selectivity index): CC50 HepG2/IC50 parasite FCB-2
Description: as §1

[5] = HepG2-A16 human hepatoma cells, HepG2-A16 cells, MTT, 48 h, read-out: CC50
[6] = P. falciparum NF-54 chloroquine-sensitive strain
[7] = P. falciparum FCB-2 chloroquine-resistant strain, read-out: IC50 μM ± SD FCB-2
[8] = HepG2-A16 cells, MTT, 48 h, read-out: CC50

| SMILES | CC50 at 48 h [1, 5] | IC50 [2, 6] | antiplasmodial activity (in words) [3] | IC50 [3, 7] | CC50 at 48 h [1, 8] | RI (resistance index) [3] | SI (selectivity index) [4] | IC50 [2] | IC50 ([3]; read-out: IC50 μM ± SD FCB-2, P. falciparum FCB-2 chloroquine-resistant strain, 48 h) | melting point | CC50 at 48 h [1] | cytotoxicity (in words) ([4]; HepG2-A16 cells) | cytotoxicity (in words) [4] | IC50 ([3]; read-out: IC50 μM ± SD FCB-2) |
| --- | --- | --- | --- | --- | --- | --- | --- | --- | --- | --- | --- | --- | --- | --- |
| C[C@@H]1[C@H](O)[C@@H](C)/C=C/C=C/C=C/C=C/C=C/C=C/C=C/[C@H](O[C@@H]2O[C@H](C)[C@@H](O)[C@H](N)[C@@H]2O)C[C@@H]2O[C@](O)(C[C@@H](O)C[C@@H](O)[C@H](O)CC[C@@H](O)C[C@@H](O)CC(=O)O[C@H]1C)C[C@H](O)[C@H]2C(=O)O [AF-B, amphotericin B, reference compound] | 39.6 µM | – | – | – | – | – | – | – | – | – | – | – | – | – |
| C[C@@H]1CC[C@@]2(OC1)O[C@H]1C[C@H]3[C@@H]4CC=C5C[C@@H](O)CC[C@]5(C)[C@H]4CC[C@]3(C)[C@H]1[C@@H]2C [Compound 1, (25R)-5-spirosten-3β-ol, reference compound] | – | > 482 µM | lacked antiplasmodial activity | > 482 µM | 1110 µM | – | – | – | – | – | – | – | – | – |
| CC(=O)[C@H]1CC[C@H]2[C@@H]3CCC4=CC(=O)CC[C@]4(C)[C@H]3CC[C@]12C [Compound 5, 4-Pregnene-3,20-dione, reference compound] | – | 25.4 ± 1.6 µM | displayed antiplasmodial activity | 38.2 ± 1.2 µM | 193 µM | 1.5 | 5.0 | – | – | – | – | – | – | – |
| CC(=O)[C@@]1(O)CC[C@H]2[C@@H]3CCC4=CC(=O)CC[C@]4(C)[C@H]3CC[C@@]21C [Compound 6, 17-hydroxy-4-pregnene-3,20-dione, reference compound] | > 1140 µM | – | inactive | – | – | 1.0 | – | > 303 µM | > 303 µM | – | – | – | – | – |
| CC1=CC[C@@]2(C)C(=C1)CC[C@H]1[C@@H]3C[C@@H]4O[C@]5(CC[C@@H](C)CO5)[C@@H](C)[C@@H]4[C@@]3(C)CC[C@@H]12 [Compound 7, (25R)-3-Methyl-spirostan-2,4-diene] | – | 34.6 ± 3.3 µM | marginal activity compared to diosgenone | 70.4 ± 5.5 µM | – | 2.0 | 3.1 | – | – | 172 to 174 °C | 217 µM | – | – | – |
| C[C@@H]1CC[C@@]2(OC1)O[C@H]1C[C@H]3[C@@H]4CCC5=CC(O)(Cc6ccccc6)CC[C@]5(C)[C@H]4CC[C@]3(C)[C@H]1[C@@H]2C (stereo partly drawn) [Compound 8, (25R)-3-Benzyl-spirostan-4-en-3-ol] | – | > 396 µM | inactive against both P. falciparum strains | > 396 µM | – | – | – | – | – | 203 to 205 °C | > 1980 µM | – | – | – |
| Cc1ccc(S(=O)(=O)NN=C2C=C3CCC4C(CCC5(C)C4CC4OC6(CCC(C)CO6)C(C)C45)C3(C)CC2)cc1 [Compound 9, (25R)-3-p-Toluenehydrazine-spirostan-4-ene] | – | 52.5 ± 7.7 µM | marginal activity compared to diosgenone | 56.1 ± 0.3 µM | – | 1.1 | – | – | – | 148 to 150 °C | > 1170 µM | – | – | – |
| C[C@@H]1CC[C@@]2(OC1)O[C@H]1C[C@H]3[C@@H]4CCC56OC5C(=O)CC[C@]6(C)[C@H]4CC[C@]3(C)[C@H]1[C@@H]2C (stereo partly drawn) [Compound 10, (25R)-4,5-Epoxy-spirostan-3-one] | – | 106 ± 7.7 µM | marginal activity compared to diosgenone | 56.7 ± 6.3 µM | – | 0.5 | 1.8 | – | – | 184 to 186 °C | 101 µM | – | – | – |
| C[C@@H]1CC[C@@]2(OC1)O[C@H]1C[C@H]3[C@@H]4CCC5CC(=O)CC[C@]5(C)[C@H]4CC[C@]3(C)[C@H]1[C@@H]2C (stereo partly drawn) [Compound 11, (25R)-Spirostan-3-one] | > 916 µM | > 482 µM | inactive against both P. falciparum strains | > 482 µM | – | – | – | – | – | – | – | – | – | – |
| C[C@@H]1CC[C@@]2(OC1)O[C@H]1C[C@H]3[C@@H]4CCC5=CC(=O)C=C[C@]5(C)[C@H]4CC[C@]3(C)[C@H]1[C@@H]2C [Compound 12, (25R)-1,4-Spirostadien-3-one] | – | 29.2 ± 1.1 µM | – | 36 ± 2.3 µM | – | 1.2 | – | – | – | 181 to 183 °C | > 487 µM | – | – | – |
| C[C@@H]1CC[C@@]2(OC1)O[C@H]1C[C@H]3[C@@H]4CCC5=CC(O)CC[C@]5(C)[C@H]4CC[C@]3(C)[C@H]1[C@@H]2C (stereo partly drawn) [Compound 13, (25R)-4-Spirosten-3-ol] | > 2410 µM | 71.9 ± 0.3 µM | marginal activity compared to diosgenone | 63.2 ± 0.3 µM | – | 0.9 | – | – | – | – | – | – | – | – |
| C[C@@H](CI)CCC(=O)[C@@H](C)[C@H]1C(=O)CC2C3CCC4=CC(=O)CC[C@]4(C)C3CC[C@@]21C (stereo partly drawn) [Compound 15, (25R)-26-Iodine-cholest-4-en-3,16,22-trione] | – | 2.2 ± 0.4 µM | – | 2.9 ± 0.3 µM | – | 1.3 | 31.1 | – | – | 148 to 150 °C | 90.2 µM | – | – | – |
| C[C@@H]1CC[C@@]2(OC1)O[C@H]1C[C@H]3[C@@H]4CC=C5C=CCC[C@]5(C)[C@H]4CC[C@]3(C)[C@H]1[C@@H]2C [Compound 19, (25R)-3,5-Spirostadiene] | > 2520 µM | 370 ± 8.3 µM | neither active | 438 ± 12 µM | – | 1.2 | – | – | – | – | – | nor toxic | – | – |
| CC(=O)O[C@H]1CC[C@@]2(C)C(=CCC3C4C[C@H](OC(C)=O)C(C(C)C5=C(C(C)=O)C[C@@H](C)CO5)[C@@]4(C)CCC32)C1 (stereo partly drawn) [Compound 20, (25R)-23-Acetyl-3,16-diacetoxy-22,23-pyran-cholesta-5,22-diene] | – | > 380 µM | neither active | > 380 µM | – | – | – | – | – | – | > 1900 µM | – | nor toxic | – |
| CC(=O)OC1C[C@H]2[C@@H]3CCC4=CC(=O)CC[C@]4(C)[C@H]3CC[C@]2(C)[C@H]1[C@H](C)C(=O)CC[C@@H](C)C=O (stereo partly drawn) [Compound 21, (25R)-16-Acetoxy-4-cholesten-3,22-dione-26-al] | – | 70.8 ± 0.8 µM | – | 92.2 ± 12.3 µM | – | 1.3 | 4.6 | – | – | – | 424 µM | – | – | – |
| CC(=O)OC1C[C@H]2[C@@H]3CCC4CC(=O)CC[C@]4(C)[C@H]3CC[C@]2(C)[C@H]1[C@H](C)C(=O)CC[C@@H](C)CO (stereo partly drawn) [Compound 22, (25R)-16-Acetoxy-26-hydroxy-cholestan-3,22-dione] | – | 62.1 ± 8.9 µM | – | 94.2 ± 5.3 µM | – | 1.5 | 0.9 | – | – | – | 82.4 µM | – | – | – |
| CC(=O)OC[C@H](C)CCC(=O)[C@@H](C)[C@H]1C(OC(C)=O)C[C@H]2[C@@H]3CCC4=CC(=O)CC[C@]4(C)[C@H]3CC[C@]12C (stereo partly drawn) [Compound 23, (25R)-16,26-Diacetoxy-4-cholesten-3,22-dione] | – | 0.6 ± 0.9 µM | – | 17.3 ± 1.4 µM | – | 28.8 | 16.2 | – | – | – | 281 µM | – | less toxic | – |
| C[C@H](C(=O)CC[C@@H](C)C=O)[C@H]1C(=O)C[C@H]2[C@@H]3CCC4=CC(=O)CC[C@]4(C)[C@H]3CC[C@]12C [Compound 25] | – | – | – | – | 45.2 µM | 1.3 | 0.4 | 95.9 ± 8.3 µM | – | – | – | – | – | 123 ± 12.8 µM |
